Calls of active or inactive are those of the source.
Assays:
NADPH oxidase 1 = NADPH oxidase 1 (Homo sapiens, UniProt Q9Y5S8); format: functional, cell-based;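 note: Cell-based assay with luminescence read-out, IC50 derived from inhibitor dose-response curves; intracellular ROS from endogenous NOX1 in intact HT29 colon cancer cells; potency of inhibitors that lower the ROS luminescence signal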
[1] = viability loss in THP-1 monocytes – THP-1 cells, cytotoxicity control for Vif-APOBEC3G degradation inhibitor project, dose response (AID 1117359); format: functional; details: THP-1
HEK293 [2] = assay: cells; details: Homo sapiens
HEK293 [3] = assay: cells; details: Homo sapiens; remark: listed apart in the source
[4] = inhibitors acting on PAX2 in cells – cell-based, plate reader, dry powder samples, selectivity assay for PAX8 inhibitor project, dose response (AID 743048); format: functional;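 note: HEK293 cells carrying a WT1 promoter luciferase reporter driven by expressed Pax2; potency is for inhibition of Pax2 driven reporter signal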
[5] = PAX5 cellular inhibition readout – cell-based, plate reader, dry powder samples, selectivity assay for PAX8 inhibitor project, dose response (AID 743047); format: functional;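 note: HEK293 cells carrying a Pax5 driven CD19 promoter luciferase reporter; potency of inhibitors that lower reporter luminescence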
[6] = COV434 cell viability loss – plate reader, dry powder, SA7, cytotoxicity control for PAX8 inhibitor project, dose response (AID 743145); format: functional, cell-based
[7] = OV-90 cell viability loss – plate reader, dry powder, SA8, PAX8 inhibitor project, dose response (AID 743149); format: functional, cell-based
[8] = PAX8-dependent cell viability loss – plate reader, dry powder, dose response (AID 743049); format: functional, cell-based
[9] = inhibitors of TRPM1-promoter reporter in SK-MEL-5 – cell-based, luciferase, dry powder, set 9, MITF inhibitor project, dose response (AID 651588); format: functional
[10] = MITF Orthogonal Assay: MALME3 CTG Assay Measured in Cell-Based System Using Plate Reader - 2084-04_Inhibitor_Dose_DryPowder_Activity_Set6.; format: functional; details: MALME-3
[11] = growth inhibition of SK-MEL-5 melanoma cells – cell-based, CellTiter-Glo luminescence, dry powder, set 8, orthogonal assay for MITF inhibitor project, dose response (AID 651586); format: functional
[12] = growth inhibition of MALME3 cells – cell-based, CellTiter-Glo luminescence, dry powder, set 5, orthogonal assay for MITF inhibitor project, dose response (AID 651584); format: functional; details: MALME-3
[13] = MITF Orthogonal Assay: SK-MEL-5 CTG Assay Measured in Cell-Based System Using Plate Reader - 2084-02_Inhibitor_Dose_DryPowder_Activity_Set7.; format: functional
[14] = MITF: Counter assay: A375 proliferation Measured in Cell-Based System Using Plate Reader - 2084-03_Inhibitor_Dose_DryPowder_Activity_Set8.; format: functional; details: A-375
[15] = cytotoxicity in MITF-independent A375 cells – cell-based, CellTiter-Glo luminescence, dry powder, set 9, counter-screen for MITF modulator project, dose response (AID 651591); format: functional; details: A-375
[16] = inhibitors of TRPM1-promoter reporter in SK-MEL-5 – cell-based, luciferase, dry powder, set 8, MITF inhibitor project, dose response (AID 624430); format: functional
[17] = NIH-3T3 fibroblast cytotoxicity, dose response, cytotoxicity control, cell-based, fluorescence, Alamar Blue, secondary assay (AID 2327); format: functional;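 note: NIH-3T3 mouse fibroblasts cultured with fluconazole at 8 µg/mL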
[18] = fluconazole-exposed Candida albicans growth modulators – fluorescence, retest, confirmation (AID 2467); format: functional, cell-based
[19] = target: T1, Mannose-6-phosphate isomerase (Homo sapiens, UniProt P34949); assay: MPI enzyme activity inhibition – biochemical, fluorescence intensity, coupled assay, primary screen (AID 1209)
T1 sequence (P34949 whole entry): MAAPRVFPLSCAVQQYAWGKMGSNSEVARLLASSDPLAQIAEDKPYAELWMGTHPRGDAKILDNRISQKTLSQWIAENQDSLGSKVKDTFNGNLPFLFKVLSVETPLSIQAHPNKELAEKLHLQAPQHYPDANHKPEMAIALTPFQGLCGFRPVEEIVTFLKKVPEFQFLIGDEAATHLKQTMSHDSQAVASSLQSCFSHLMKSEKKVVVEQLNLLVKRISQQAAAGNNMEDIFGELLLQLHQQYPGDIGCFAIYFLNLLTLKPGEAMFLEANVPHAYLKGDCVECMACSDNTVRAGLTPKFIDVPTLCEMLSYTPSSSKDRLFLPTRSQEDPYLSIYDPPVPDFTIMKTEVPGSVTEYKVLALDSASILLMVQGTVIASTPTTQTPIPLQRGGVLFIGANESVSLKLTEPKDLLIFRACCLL

[20] = target: Induced myeloid leukemia cell differentiation protein Mcl-1 (Homo sapiens, UniProt Q07820); format: functional
Sequence of Induced myeloid leukemia cell differentiation protein Mcl-1 (Q07820 whole entry): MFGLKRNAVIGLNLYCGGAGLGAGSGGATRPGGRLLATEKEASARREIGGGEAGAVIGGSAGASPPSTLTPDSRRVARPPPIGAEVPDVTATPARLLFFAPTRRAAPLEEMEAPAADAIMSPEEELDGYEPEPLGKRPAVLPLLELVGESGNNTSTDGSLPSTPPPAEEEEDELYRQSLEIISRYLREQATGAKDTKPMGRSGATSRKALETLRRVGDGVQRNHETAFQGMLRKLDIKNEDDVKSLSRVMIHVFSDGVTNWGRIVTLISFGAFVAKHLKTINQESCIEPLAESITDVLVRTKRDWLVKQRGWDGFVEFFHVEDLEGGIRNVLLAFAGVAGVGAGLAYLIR

[21] = target: T1, Mannose-6-phosphate isomerase; assay: MPI inhibition at elevated mannose 6-phosphate – biochemical, fluorescence intensity, high mannose 6-phosphate, primary screen (AID 1220)
[22] = target: Eukaryotic translation initiation factor 4E (Mus musculus, UniProt P63073); assay: blockers of eIF4G binding by eIF4E – biochemical, TR-FRET, dose response (AID 855); format: functional;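 note: potency for disrupting eIF4E binding to eIF4GI seen as loss of FRET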
Sequence of Eukaryotic translation initiation factor 4E (P63073 whole entry): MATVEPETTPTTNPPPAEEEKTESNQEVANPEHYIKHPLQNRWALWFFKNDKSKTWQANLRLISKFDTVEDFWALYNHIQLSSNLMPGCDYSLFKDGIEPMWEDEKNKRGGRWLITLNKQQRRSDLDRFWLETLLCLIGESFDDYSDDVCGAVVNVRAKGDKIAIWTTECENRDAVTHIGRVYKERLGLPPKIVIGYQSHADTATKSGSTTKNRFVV

Nonstructural protein 1 = Nonstructural protein 1 (Influenza A virus, UniProt Q194T2); format: functional, Influenza A virus (A/California/07/2009(H1N1))
Sequence of Nonstructural protein 1 (Q194T2 whole entry): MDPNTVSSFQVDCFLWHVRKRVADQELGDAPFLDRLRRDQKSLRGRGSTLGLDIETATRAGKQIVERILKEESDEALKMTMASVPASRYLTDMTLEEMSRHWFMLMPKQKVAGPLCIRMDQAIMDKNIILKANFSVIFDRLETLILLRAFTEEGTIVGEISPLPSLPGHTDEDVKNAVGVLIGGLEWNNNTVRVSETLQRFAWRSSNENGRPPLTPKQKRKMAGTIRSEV

Genome polyprotein = Genome polyprotein (dengue virus type 2, UniProt P29990); assay: flavivirus cap methylation enzyme inhibition – biochemical, confirmation dose response, primary screen (AID 588689); format: functional
Sequence of Genome polyprotein (P29990 2492-3391 limits assumed): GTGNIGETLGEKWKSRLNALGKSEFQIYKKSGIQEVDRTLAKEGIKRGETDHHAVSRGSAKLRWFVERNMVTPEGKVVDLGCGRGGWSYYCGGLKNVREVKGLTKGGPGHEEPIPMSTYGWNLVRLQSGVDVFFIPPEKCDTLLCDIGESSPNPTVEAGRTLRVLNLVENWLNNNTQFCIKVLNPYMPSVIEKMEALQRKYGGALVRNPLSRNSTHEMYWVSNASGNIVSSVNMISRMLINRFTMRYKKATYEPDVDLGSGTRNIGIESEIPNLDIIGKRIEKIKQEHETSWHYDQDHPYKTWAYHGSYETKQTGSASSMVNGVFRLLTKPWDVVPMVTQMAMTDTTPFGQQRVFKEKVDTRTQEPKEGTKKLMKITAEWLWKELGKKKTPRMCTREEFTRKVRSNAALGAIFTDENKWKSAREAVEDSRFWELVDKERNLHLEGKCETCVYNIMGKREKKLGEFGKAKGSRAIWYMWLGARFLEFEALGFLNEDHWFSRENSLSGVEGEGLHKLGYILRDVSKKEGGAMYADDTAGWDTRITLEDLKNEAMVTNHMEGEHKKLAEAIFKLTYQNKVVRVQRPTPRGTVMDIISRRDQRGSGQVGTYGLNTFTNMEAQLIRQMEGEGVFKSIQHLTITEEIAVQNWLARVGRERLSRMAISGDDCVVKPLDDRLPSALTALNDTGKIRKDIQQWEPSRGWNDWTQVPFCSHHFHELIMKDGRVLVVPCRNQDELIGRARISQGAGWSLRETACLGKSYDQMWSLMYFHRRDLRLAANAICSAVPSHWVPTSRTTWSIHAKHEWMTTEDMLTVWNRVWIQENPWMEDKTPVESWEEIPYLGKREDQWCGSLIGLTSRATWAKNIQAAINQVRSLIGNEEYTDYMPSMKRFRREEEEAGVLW

[23] = target: Glutathione-S-transferase (Schistosoma japonicum, UniProt Q26513); assay: GST-antibody interaction or FRET quenching – biochemical, TR-FRET, artefact control for Vif-APOBEC3G degradation inhibitor project, dose response (AID 1117362); format: functional
Sequence of Glutathione-S-transferase (Q26513 whole entry): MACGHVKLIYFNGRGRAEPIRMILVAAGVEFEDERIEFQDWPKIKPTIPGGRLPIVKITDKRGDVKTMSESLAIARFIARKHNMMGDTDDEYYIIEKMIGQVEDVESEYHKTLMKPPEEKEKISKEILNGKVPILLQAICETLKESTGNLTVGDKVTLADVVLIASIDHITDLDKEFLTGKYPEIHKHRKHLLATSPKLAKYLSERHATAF

[24] = Dd2 parasite growth inhibition in erythrocytes – SYBR Green, dry powder samples, set 4, dose response (AID 1159572); format: functional, cell-based
[25] = growth inhibition of yeast DHODH-expressing 3D7 parasites – SYBR Green, dry powder samples, dose response (AID 1159570); format: functional, cell-based;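 note: parasite growth measured after 72 hours of compound exposure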
[26] = toxicity to human HepG2 hepatoma cells – cell-based, plate reader, dry powder samples, cytotoxicity control, dose response (AID 1159569); format: functional;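 note: inhibitor potency with signal falling toward the positive control level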
[27] = Dd2 parasite growth inhibition in erythrocytes – SYBR Green, dry powder samples, set 9, dose response (AID 1159568); format: functional, cell-based
[28] = P. falciparum Dd2 growth inhibitors, dose response, SYBR Green, cherry-picked samples (AID 1159567); format: functional, cell-based
[29] = Dd2 malaria parasite growth inhibition potency – SYBR Green, dry powder samples, dose response (AID 1159566); format: functional, cell-based;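 note: potency for growth inhibition with lower SYBR green DNA signal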
[30] = Plasmodium falciparum Dd2 Sybr green parasite growth Measured in Cell-Based and Microorganism Combination System Using Plate Reader - 2153-01_Inhibitor_Dose_DryPowder_Activity_Set3.; format: functional
[31] = growth inhibition of PfATP4-mutant resistant parasites – NITD609-resistant line, SYBR Green, dry powder, dose response (AID 1159571); format: functional, cell-based;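 note: parasites synchronized at ring stage by sorbitol before testing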
[32] = luciferase reporter signal suppression in cells – H4 neuroglioma cells, luminescence, dose response (AID 1990); format: functional, cell-based
[33] = luciferase reporter signal reduction – luminescence, H4-C neuroglioblastoma cells, dose response (AID 2458); format: functional, cell-based;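 note: H4 neuroglioblastoma cells stably carrying a luciferase reporter gene fusion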
cells = format: functional, cell-based
[34] = Luminescence Cell-Based Dose Response HTS to Identify Inhibitors of 5'UTR Stem-Loop Driven Prion Protein mRNA Translation in H4 Neuroglioblastoma Cells. [Related pubchem assays: 1827 (Project Summary), 1813 (Primary HTS)]; format: functional
[35] = alpha-synuclein stem-loop luciferase translation blockers – H4 neuroglioma cells, luminescence, confirmation (AID 1988); format: functional, cell-based
[36] = Luminescence-based dose response cell-based high throughput screening assay for cytotoxic compounds using the IEC-6 intestinal epithelial cell line. [Related pubchem assays: 1858 (Summary AID.), 1825 (Counterscreen.), 1907 (Confirmation screen.)]; format: functional
[37] = alpha-synuclein stem-loop translation blockers – luminescence, H4 neuroglioblastoma cells, dose confirmation, confirmation (AID 2454); format: functional, cell-based;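 note: H4 neuroglioblastoma cells carrying an alpha-synuclein 5'UTR luciferase reporter; potency for inhibition of the luciferase signal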
Vero = assay: cells; format: functional, cell-based; details: Chlorocebus sabaeus

Sequence of NADPH oxidase 1 (Q9Y5S8 whole entry): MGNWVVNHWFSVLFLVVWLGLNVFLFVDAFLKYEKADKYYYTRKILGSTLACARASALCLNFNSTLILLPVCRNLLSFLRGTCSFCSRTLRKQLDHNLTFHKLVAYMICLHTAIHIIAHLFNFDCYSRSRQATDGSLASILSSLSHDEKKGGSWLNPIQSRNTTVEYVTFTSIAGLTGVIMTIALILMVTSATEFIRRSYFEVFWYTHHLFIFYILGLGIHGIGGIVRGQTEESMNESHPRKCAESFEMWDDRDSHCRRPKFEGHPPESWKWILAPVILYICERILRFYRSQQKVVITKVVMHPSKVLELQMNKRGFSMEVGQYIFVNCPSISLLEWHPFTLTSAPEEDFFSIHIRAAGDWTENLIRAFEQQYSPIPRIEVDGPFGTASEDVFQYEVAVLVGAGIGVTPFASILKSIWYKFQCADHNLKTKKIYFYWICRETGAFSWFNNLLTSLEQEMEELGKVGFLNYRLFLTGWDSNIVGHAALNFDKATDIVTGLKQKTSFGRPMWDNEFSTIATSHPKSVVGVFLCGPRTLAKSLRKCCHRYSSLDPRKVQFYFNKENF

O=C(Nc1ccc(OCc2ccccc2)cc1)Nc1ccc([N+](=O)[O-])cc1
IC50 (NADPH oxidase 1): > 17 µM (not active)

O=C(N/N=C/C(Br)=C/c1ccccc1)c1cc(-c2ccco2)[nH]n1
CC50 [1]: 33.1 µM (active) | EC50 (HEK293 [2]): > 59.6 µM (inactive) | EC50 (HEK293 [3]): > 59.6 µM (inactive)

COc1cccc(C#Cc2ccc([C@@H]3[C@@H](C#N)N(C(=O)C4CCCCC4)[C@@H]3CO)cc2)c1
AC50 [4]: 19.9 µM (active) | AC50 [5]: 30.5 µM (active) | AC50 [6]: 69.6 µM (active) | AC50 [7]: 57.3 µM (active) | AC50 [8]: 25.8 µM (active)

CN1CCN(C2=C(Nc3ccc(F)cc3F)C(=O)c3ccccc3C2=O)CC1
AC50 [9]: 17.5 µM (active) | AC50 [10]: 25.4 µM (active) | AC50 [11]: > 70 µM (inactive) | AC50 [12]: 25.4 µM (active) | AC50 [13]: 9.87 µM (active) | AC50 [14]: > 70 µM (inactive) | AC50 [15]: > 70 µM (inactive) | AC50 [16]: 5.36 µM (active)

CCn1c(C)nc2cc(C(=O)N/N=C/c3ccc(O)c(O)c3O)ccc21
EC50 [17]: 104 µM (active) | EC50 [18]: 1.6 µM (active) | IC50 [19]: 7.02 µM (active) | IC50 [20]: > 54 µM (active) | IC50 [21]: 8.47 µM (active) | IC50 [22]: 27.5 µM (active) | IC50 (Nonstructural protein 1): 16.6 µM (active) | IC50 (Genome polyprotein): 21.7 µM (active) | IC50 [23]: 45 µM (active)

COc1ccc2c3c([nH]c2c1)[C@H](CO)N(C(C)=O)CC31CCN(C(=O)c2ccc3c(c2)OCO3)CC1
AC50 [24]: 6.93 µM (active)

CCCC(=O)Nc1ccc2c(c1)OC[C@@H](C)N(Cc1cc(F)ccc1F)C[C@@H](C)[C@H](OC)CN(C)C2=O
AC50 [25]: 7.15 µM (active) | AC50 [26]: > 100 µM (inactive) | AC50 [27]: 0.978 µM (active) | AC50 [28]: 0.817 µM (active) | AC50 [29]: 0.322 µM (active) | AC50 [30]: 2.07 µM (active) | AC50 [31]: 2.81 µM (active)

CN(C)c1ccc(C(=O)c2ccc(N(C)C)c3ccccc23)cc1
EC50 [32]: < 0.1 µM (active) | EC50 [33]: 0.103 µM (active) | EC50 (cells): 0.112 µM (active) | EC50 [34]: < 0.1 µM (active) | EC50 [35]: < 0.1 µM (active) | IC50 [36]: 0.146 µM (active) | EC50 [37]: 0.118 µM (active) | IC50 (Vero): > 25 µM (active)
